Like-named read-outs stand apart in the source and are kept apart here.
Legend:
[1] = system: heat treated oats; assay: germination of heat treated oats incubated with gibberellin; format: in vivo, oats (VAO-2); settings: 100 ppm gibberellin, 5 days; two-phase dry heated oats
[2] = system: dormant oat VAO-48; assay: CaCl2 in anaerobic steep water, avenanthramide accumulation during false malting of VAO-48; format: in vivo; settings: for All others / Avenanth A / Avenanth B / Avenanth C / Total Avenanth: four days 30° C., avenanthramide A equivalents
Method: (§1) In a third method, samples (10 μl) were injected into a C18 reversed-phase column (Zorbax Stable™ bond C18, 3.5 μm, 4.6 mm×150 mm) maintained at 30° C. Solvents for HPLC were A: methanol, B: water and C: 0.5M formic acid. The solvent gradient (vol. %) consisted of 45A:45B:10C, linearly increasing to 55A:35B:10C over 24 min, and linearly increasing to 70A:20B:10C over 9 min, then reaching 95A:5C over 3 min and holding for 3 min. The solvent gradient was brought back to original conditions over 3 min, allowed equilibrating for 3 min.
(§2) Individual avenanthramides were quantified by determining the peak areas at 330 nm relative to an external authentic avenanthramide A standard and expressed as avenanthramide A weight equivalents. Total avenanthramides were calculated by summing all the individual avenanthramide quantities calculated as avenanthramide A weight equivalents and expressed as parts per million (ppm) avenanthramide A equivalents on a dry weight basis.
25 g samples of the hulless, hairless, dormant oat VAO-48 was anaerobically steeped in either water or various concentrations of USP-grade CaCl2.(H2O)2 solutions at 35° C. After steeping for 18 hours and air drying in a seed dryer for about four hours, the seeds were surface sterilized as above then ‘false malted” using Petri dishes (150×50 mm) in the dark at 30° C. in a controlled temperature oven for four days. The germination rate in all cases was less than 1% after four days. After malting the seeds were removed, dried at room temperature (forced air) for four hours then brought to constant weight by drying at 37° C. for ˜40 hours and stored at −20° C. until analyzed for avenanthramide content by the third method described above (μg avenanthramide A equivalents/g dry wt=ppm avenanthramide A), and compared to un-malted material.

[3] = system: non-dormant oat VAO-22; assay: CaCl2 in anaerobic steep water, avenanthramide accumulation during false malting of VAO-22; format: in vivo; settings: for All others / Avenanth A / Avenanth B / Avenanth C / Total Avenanth: four days 30° C., avenanthramide A equivalents
Method: as §1, §2
A 1,300 g sample of VAO-22 hulless, hairless, non-dormant oat breeder's seed was used (84% germination rate after four days). The seeds were then heat treated as in Example 5. A 25 g sample was used as a control representing the un-malted seeds and stored at −20° C. until analyzed. The rest of the heat treated material was anaerobically steeped at 35° C. in either 1.0% or 2.0% Ca Cl2.(H2O)2 for 18 hours and air drying in a seed dryer for about four hours. The seeds were then surface sterilized as above and ‘false malted” in the dark at 30° C. in a controlled temperature oven for four days using Petri dishes (150×50 mm). After malting the seeds were removed, dried at room temperature (forced air) for four hours then brought to constant weight by drying at 37° C. for ˜40 hours and stored at −20° C. until analyzed for avenanthramide content by HPLC using the third method described above (μg avenanthramide A equivalents/g dry wt=ppm avenanthramide A), and compared to un-malted material.

[4] = system: smooth muscle cells; settings: about 40 ppm; rat; cited from earlier work
[5] = system: colonic cancer cell lines; settings: about 20 to 50 ppm; cited from earlier work
[6] = system: smooth muscle cells; settings: about 40 ppm; human; cited from earlier work
[7] = system: normal cell lines; settings: about 20 to 50 ppm; cited from earlier work

gibberellin
germination [1]: almost complete restoration of germination

O.O.[Ca+2].[Cl-].[Cl-] [CaCl2, CaCl2.(H2O)2]
All others ([2]; 0.05% CaCl2 in steeping water): 287.3 ± 30.9 ppm
Avenanth A ([2]; 0.05% CaCl2 in steeping water): 37.7 ± 5.6 ppm
Avenanth B ([2]; 0.05% CaCl2 in steeping water): 122.0 ± 14.8 ppm
Avenanth C ([2]; 0.05% CaCl2 in steeping water): 81.5 ± 9.4 ppm
Total Avenanth ([2]; 0.05% CaCl2 in steeping water): 528.4 ± 30.9 ppm
All others ([2]; 0.10% CaCl2 in steeping water): 251.4 ± 10.4 ppm
Avenanth A ([2]; 0.10% CaCl2 in steeping water): 27.2 ± 11.4 ppm
Avenanth B ([2]; 0.10% CaCl2 in steeping water): 113.4 ± 5.8 ppm
Avenanth C ([2]; 0.10% CaCl2 in steeping water): 75.7 ± 4.6 ppm
Total Avenanth ([2]; 0.10% CaCl2 in steeping water): 467.7 ± 32.1 ppm
All others ([2]; 0.50% CaCl2 in steeping water): 400.1 ± 0.3 ppm
Avenanth A ([2]; 0.50% CaCl2 in steeping water): 59.9 ± 1.1 ppm
Avenanth B ([2]; 0.50% CaCl2 in steeping water): 155.3 ± 2.3 ppm
Avenanth C ([2]; 0.50% CaCl2 in steeping water): 126.4 ± 2.8 ppm
Total Avenanth ([2]; 0.50% CaCl2 in steeping water): 741.7 ± 6.5 ppm
overall increase of avenanthramide concentration over un-malted seeds ([2]; 1% Ca+2): about 23.6 fold
All others ([2]; 1.0% CaCl2 in steeping water): 401.1 ± 15.4 ppm
Avenanth A ([2]; 1.0% CaCl2 in steeping water): 68.7 ± 3.3 ppm
Avenanth B ([2]; 1.0% CaCl2 in steeping water): 149.0 ± 8.2 ppm
Avenanth C ([2]; 1.0% CaCl2 in steeping water): 138.1 ± 4.0 ppm
Total Avenanth ([2]; 1.0% CaCl2 in steeping water): 757.0 ± 30.9 ppm
increase of avenanthramide concentration over steeping with no added Ca+2 ([2]; 1% added Ca+2): approximately 1.7 fold
avenanthramide B fold over initial value ([3]; 1% CaCl2): 23.4 fold
avenanthramide B increase over initial value ([3]; 1% CaCl2): 2,240%
avenanthramide C fold over initial ([3]; 1% CaCl2): 28.4 fold
avenanthramide C increase over initial ([3]; 1% CaCl2): 2,735%
total avenanthramide fold over initial ([3]; 1% CaCl2): 24.1 fold
total avenanthramide levels relative to initial ([3]; 1% CaCl2): 2,307%
All others ([3]; 1.0% CaCl2 in steeping water): 360.1 ± 2.4 ppm
Avenanth A ([3]; 1.0% CaCl2 in steeping water): 27.0 ± 0.22 ppm
Avenanth B ([3]; 1.0% CaCl2 in steeping water): 79.7 ± 0.26 ppm
Avenanth C ([3]; 1.0% CaCl2 in steeping water): 65.2 ± 0.26 ppm
Total Avenanth ([3]; 1.0% CaCl2 in steeping water): 532.0 ± 3.16 ppm
avenanthramide B fold over initial ([3]; 2% CaCl2): 30.3 fold
avenanthramide B increase over initial value ([3]; 2% CaCl2): 2,930%
avenanthramide C fold over initial ([3]; 2% CaCl2): 43.5 fold
avenanthramide C increase over initial ([3]; 2% CaCl2): 4,252%
total avenanthramide fold over initial ([3]; 2% CaCl2): 31.9 fold
total avenanthramide levels relative to initial ([3]; 2% CaCl2): 3,190%
All others ([3]; 2.0% CaCl2 in steeping water): 461.7 ± 8.8 ppm
Avenanth A ([3]; 2.0% CaCl2 in steeping water): 46.7 ± 0.08 ppm
Avenanth B ([3]; 2.0% CaCl2 in steeping water): 103.0 ± 0.06 ppm
Avenanth C ([3]; 2.0% CaCl2 in steeping water): 100.1 ± 0.38 ppm
Total Avenanth ([3]; 2.0% CaCl2 in steeping water): 711.4 ± 9.32 ppm

O=C(/C=C/c1ccc(O)c(O)c1)Nc1ccc(O)cc1C(=O)O [avenanthramide C]
nitric oxide production [4]: inhibit
proliferation of smooth muscle cells [4]: inhibit the proliferation
anti-inflammatory activity [5]: anti-inflammatory
anti-proliferative activity [5]: anti-proliferative activity
nitric oxide production [6]: inhibit
proliferation of smooth muscle cells [6]: inhibit the proliferation
effect on normal cell lines [7]: no effect

Source: patent US10334869B2, “Method for increasing concentration of avenanthramides in oats” (HER MAJESTY THE QUEEN IN RIGHT OF CANADA, AS REPRESENTED BY …, priority 2009, dated 2019)
